# Measured values as given in paper PMC4931907 (eLife, 2016).
# Tested on: Kasumi-1 cells
# Experiment: Kasumi-1 xenograft model in SCID mice
# Type: in vivo
# Description: Figure 5. […] (A) and (B) Plots of tumor volume (A) and body weight (B). (C) and (D) Tumor size (C) and body weight (D) at sacrifice after 3 weeks of treatment. DOI: http://dx.doi.org/10.7554/eLife.11156.012
# Severe combined immunodeficiency (SCID) mice were injected with 30 million Kasumi-1 cells in 100 μl of PBS and 100 μl of Matrigel. […] Tumor volume and body weight were recorded every 2 days. After 3 weeks of treatment, the mice were killed and tumor size and body weight were recorded. All mice were maintained according to National Institutes of Health guidelines and all animal use protocols were approved by the Institutional Animal Care and Use Committee.
# [1] = 50 or 100 mg/kg orally, daily, 3 weeks
smiles,measurement,setting,value
O=C(O)c1cc(-c2ccc(F)cc2F)ccc1O [diflunisal],Effect on body weight,[1],minimal effects on body weight
same,Tumor volume,[1],reduced tumor volumes in a dose-dependent manner
same,Tumor size versus vehicle-treated controls,after 3 weeks of treatment,significantly smaller
same,Tumors at sacrifice,"higher dose (100 mg/kg), after 3 weeks of treatment",most of the tumors had disappeared
